Measurements taken from the kinase profiling compilation of Christmann-Franck et al. (2016).

Tests used:
Assay in all cases: KINOMEscan competition binding
Settings in all cases: compound 10.0 µM
MAPKAPK5 (human) = MAPKAPK5 (human) (UniProt Q8IW41)
CAMK1D (human) = CAMK1D (human) (UniProt Q8IU85)
MELK (human) = MELK (human) (UniProt Q14680)
MERTK (human) = MERTK (human) (UniProt Q12866)
STK32C (human) = STK32C (human) (UniProt Q86UX6)
NEK9 (human) = NEK9 (human) (UniProt Q8TD19)
PDGFRA (human) = PDGFRA (human) (UniProt P16234)
CSNK1D (human) = CSNK1D (human) (UniProt P48730)
MAPK11 (human) = MAPK11 (human) (UniProt Q15759)
CLK1 (human) = CLK1 (human) (UniProt P49759)
DCLK3 (human) = DCLK3 (human) (UniProt Q9C098)
MAPK12 (human) = MAPK12 (human) (UniProt P53778)
PAK6 (human) = PAK6 (human) (UniProt Q9NQU5)
CDK9 (human) = CDK9 (human) (UniProt P50750)
CSK (human) = CSK (human) (UniProt P41240)
CAMK2G (human) = CAMK2G (human) (UniProt Q13555)
INSRR (human) = INSRR (human) (UniProt P14616)
MARK3 (human) = MARK3 (human) (UniProt P27448)
TLK2 (human) = TLK2 (human) (UniProt Q86UE8)
MYLK2 (human) = MYLK2 (human) (UniProt Q9H1R3)
MYO3B (human) = MYO3B (human) (UniProt Q8WXR4)
CAMK2D (human) = CAMK2D (human) (UniProt Q13557)
RPS6KA4 KD2 (human) = RPS6KA4 KD2 (human) (UniProt O75676)
ADCK3 (human) = ADCK3 (human) (UniProt Q8NI60)
INSR (human) = INSR (human) (UniProt P06213)
AURKC (human) = AURKC (human) (UniProt Q9UQB9)
EPHA8 (human) = EPHA8 (human) (UniProt P29322)
CLK3 (human) = CLK3 (human) (UniProt P49761)
MAPK8 (human) = MAPK8 (human) (UniProt P45983)
NUAK1 (human) = NUAK1 (human) (UniProt O60285)
CSNK1G2 (human) = CSNK1G2 (human) (UniProt P78368)
LYN (human) = LYN (human) (UniProt P07948)
SLK (human) = SLK (human) (UniProt Q9H2G2)
PAK7 (human) = PAK7 (human) (UniProt Q9P286)
FYN (human) = FYN (human) (UniProt P06241)
BMPR2 (human) = BMPR2 (human) (UniProt Q13873)
LIMK1 (human) = LIMK1 (human) (UniProt P53667)
CSNK1G3 (human) = CSNK1G3 (human) (UniProt Q9Y6M4)
PIK3CD (human) = PIK3CD (human) (UniProt O00329)
STK4 (human) = STK4 (human) (UniProt Q13043)

MYLK2 (human), sequence (Q9H1R3 whole entry, looked up): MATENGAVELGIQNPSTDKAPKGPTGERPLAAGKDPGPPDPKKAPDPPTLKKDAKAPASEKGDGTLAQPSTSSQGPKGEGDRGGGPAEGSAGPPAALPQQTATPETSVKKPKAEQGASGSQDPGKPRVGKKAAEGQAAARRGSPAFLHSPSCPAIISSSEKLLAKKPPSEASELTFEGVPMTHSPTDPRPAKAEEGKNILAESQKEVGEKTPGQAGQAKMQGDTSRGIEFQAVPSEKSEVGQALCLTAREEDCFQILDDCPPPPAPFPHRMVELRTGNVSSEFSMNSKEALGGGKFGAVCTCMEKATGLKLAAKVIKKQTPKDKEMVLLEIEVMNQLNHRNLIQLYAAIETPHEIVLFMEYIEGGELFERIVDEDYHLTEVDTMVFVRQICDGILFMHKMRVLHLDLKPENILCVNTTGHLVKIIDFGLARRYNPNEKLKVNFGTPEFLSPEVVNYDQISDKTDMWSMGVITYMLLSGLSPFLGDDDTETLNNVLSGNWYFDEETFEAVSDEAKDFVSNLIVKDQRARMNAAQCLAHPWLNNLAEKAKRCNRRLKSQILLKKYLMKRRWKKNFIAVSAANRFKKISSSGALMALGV
CLK3 (human), sequence (P49761 whole entry, looked up): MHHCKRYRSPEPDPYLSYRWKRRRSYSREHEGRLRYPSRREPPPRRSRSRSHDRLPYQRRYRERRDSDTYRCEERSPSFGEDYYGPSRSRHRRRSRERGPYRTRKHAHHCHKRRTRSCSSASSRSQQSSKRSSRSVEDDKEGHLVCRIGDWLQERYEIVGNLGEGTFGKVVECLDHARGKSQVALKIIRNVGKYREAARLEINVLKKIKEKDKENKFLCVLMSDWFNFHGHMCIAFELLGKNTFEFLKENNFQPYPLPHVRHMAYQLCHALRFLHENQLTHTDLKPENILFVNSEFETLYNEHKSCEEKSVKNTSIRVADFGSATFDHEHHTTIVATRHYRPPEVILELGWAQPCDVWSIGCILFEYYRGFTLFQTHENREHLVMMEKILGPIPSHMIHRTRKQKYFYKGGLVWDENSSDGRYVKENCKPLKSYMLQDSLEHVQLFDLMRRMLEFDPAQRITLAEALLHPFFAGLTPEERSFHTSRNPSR
CSNK1G3 (human), sequence (Q9Y6M4 whole entry, looked up): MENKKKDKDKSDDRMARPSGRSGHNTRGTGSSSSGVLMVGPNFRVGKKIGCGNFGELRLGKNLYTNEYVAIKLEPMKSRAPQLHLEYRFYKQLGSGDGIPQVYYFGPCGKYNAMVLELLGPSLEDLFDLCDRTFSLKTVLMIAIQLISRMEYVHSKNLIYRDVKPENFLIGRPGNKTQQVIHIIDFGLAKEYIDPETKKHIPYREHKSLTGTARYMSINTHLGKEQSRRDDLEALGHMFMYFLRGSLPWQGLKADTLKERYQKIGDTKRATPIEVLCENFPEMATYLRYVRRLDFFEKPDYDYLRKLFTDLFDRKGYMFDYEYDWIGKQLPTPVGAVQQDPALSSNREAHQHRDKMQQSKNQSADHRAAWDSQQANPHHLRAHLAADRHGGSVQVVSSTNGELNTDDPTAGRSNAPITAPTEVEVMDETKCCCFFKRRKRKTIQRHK
PIK3CD (human), sequence (O00329 whole entry, looked up): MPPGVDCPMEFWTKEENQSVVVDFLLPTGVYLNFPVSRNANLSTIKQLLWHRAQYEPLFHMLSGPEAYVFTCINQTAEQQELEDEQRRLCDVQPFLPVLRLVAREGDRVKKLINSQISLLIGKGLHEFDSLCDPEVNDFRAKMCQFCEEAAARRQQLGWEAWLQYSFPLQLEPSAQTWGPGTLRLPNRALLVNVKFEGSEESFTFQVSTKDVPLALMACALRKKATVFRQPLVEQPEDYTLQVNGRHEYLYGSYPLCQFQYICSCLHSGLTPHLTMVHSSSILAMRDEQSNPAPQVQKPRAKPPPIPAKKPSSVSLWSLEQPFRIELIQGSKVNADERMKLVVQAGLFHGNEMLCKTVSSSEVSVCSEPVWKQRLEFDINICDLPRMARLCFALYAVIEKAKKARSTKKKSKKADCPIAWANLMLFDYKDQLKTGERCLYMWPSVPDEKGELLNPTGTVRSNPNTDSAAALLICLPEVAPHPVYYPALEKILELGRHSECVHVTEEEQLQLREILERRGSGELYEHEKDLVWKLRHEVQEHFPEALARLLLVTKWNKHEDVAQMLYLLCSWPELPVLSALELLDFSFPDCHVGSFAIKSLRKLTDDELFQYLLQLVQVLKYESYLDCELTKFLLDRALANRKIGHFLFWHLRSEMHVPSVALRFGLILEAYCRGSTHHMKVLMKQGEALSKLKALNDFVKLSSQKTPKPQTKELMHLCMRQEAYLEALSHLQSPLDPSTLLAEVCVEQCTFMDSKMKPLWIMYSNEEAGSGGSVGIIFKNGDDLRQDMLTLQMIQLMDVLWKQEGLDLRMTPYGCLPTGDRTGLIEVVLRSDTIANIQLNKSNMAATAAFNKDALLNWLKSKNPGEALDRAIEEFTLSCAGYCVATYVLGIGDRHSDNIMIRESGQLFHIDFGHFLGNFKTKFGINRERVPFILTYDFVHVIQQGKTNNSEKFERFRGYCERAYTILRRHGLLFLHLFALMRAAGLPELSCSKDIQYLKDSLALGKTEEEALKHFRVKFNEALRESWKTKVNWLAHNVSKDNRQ
MAPK8 (human), sequence (P45983 whole entry, looked up): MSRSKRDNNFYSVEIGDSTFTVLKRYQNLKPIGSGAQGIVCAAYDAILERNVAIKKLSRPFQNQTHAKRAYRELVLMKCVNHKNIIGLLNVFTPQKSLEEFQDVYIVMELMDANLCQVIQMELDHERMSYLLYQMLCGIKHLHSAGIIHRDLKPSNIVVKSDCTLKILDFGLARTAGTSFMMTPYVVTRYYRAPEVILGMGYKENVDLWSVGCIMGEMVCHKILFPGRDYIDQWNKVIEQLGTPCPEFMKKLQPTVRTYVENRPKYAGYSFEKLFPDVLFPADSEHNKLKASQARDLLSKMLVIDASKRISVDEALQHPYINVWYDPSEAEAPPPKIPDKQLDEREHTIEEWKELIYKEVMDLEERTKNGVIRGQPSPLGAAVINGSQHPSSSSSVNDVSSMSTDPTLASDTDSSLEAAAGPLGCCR
AURKC (human), sequence (Q9UQB9 whole entry, looked up): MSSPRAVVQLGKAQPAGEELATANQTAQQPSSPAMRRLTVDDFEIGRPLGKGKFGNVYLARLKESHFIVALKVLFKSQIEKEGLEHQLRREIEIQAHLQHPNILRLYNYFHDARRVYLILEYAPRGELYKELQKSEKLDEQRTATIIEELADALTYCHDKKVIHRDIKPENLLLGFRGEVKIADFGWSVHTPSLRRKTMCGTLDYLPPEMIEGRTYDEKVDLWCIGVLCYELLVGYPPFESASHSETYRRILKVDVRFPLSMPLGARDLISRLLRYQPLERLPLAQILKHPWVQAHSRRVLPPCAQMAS
MERTK (human), sequence (Q12866 whole entry, looked up): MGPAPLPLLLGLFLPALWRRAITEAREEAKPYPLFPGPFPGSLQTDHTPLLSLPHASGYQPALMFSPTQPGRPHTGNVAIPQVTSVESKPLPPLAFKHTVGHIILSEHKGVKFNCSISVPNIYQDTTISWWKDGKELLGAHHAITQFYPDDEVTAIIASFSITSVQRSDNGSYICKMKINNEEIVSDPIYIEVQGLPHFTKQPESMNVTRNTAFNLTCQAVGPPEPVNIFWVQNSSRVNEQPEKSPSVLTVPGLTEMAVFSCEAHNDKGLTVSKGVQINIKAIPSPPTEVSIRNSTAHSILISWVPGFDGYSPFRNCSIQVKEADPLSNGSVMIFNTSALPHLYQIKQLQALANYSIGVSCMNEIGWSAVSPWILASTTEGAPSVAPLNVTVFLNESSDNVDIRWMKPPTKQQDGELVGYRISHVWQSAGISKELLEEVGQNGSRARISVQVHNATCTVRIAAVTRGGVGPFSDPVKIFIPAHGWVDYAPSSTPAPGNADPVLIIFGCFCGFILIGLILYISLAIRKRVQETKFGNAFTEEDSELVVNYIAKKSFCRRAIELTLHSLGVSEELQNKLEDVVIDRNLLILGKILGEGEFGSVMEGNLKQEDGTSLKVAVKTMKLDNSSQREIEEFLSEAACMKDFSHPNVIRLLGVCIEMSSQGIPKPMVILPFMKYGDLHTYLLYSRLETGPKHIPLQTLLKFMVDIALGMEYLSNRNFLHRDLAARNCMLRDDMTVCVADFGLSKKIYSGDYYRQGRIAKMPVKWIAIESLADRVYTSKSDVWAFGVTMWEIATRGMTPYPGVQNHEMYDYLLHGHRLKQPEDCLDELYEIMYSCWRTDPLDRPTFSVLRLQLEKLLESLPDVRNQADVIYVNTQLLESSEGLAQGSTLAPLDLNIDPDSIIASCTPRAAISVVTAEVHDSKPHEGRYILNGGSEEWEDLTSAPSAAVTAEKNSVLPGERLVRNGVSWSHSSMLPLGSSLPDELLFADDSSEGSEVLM
PAK6 (human), sequence (Q9NQU5 whole entry, looked up): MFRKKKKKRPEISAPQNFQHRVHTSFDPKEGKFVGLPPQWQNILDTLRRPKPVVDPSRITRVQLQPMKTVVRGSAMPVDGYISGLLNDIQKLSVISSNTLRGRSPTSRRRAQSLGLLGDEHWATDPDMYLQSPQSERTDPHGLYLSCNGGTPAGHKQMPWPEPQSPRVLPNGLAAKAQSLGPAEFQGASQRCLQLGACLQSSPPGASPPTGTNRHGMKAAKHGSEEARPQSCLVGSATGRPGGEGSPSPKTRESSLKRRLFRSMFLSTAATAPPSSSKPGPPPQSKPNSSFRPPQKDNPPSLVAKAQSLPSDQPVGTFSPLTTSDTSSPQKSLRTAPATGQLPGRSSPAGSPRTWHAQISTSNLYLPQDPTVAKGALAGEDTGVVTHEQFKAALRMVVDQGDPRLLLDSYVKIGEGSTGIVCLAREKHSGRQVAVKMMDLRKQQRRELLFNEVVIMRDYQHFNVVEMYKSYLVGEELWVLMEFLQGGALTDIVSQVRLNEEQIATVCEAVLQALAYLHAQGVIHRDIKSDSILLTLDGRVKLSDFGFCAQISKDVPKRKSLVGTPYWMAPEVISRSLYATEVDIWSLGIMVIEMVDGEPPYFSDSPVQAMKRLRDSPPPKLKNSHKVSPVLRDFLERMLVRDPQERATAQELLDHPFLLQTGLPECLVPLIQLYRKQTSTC

kinase still bound, per cent of control (MAPKAPK5 (human)) [%] | kinase still bound, per cent of control (CAMK1D (human)) [%] | kinase still bound, per cent of control (MELK (human)) [%] | kinase still bound, per cent of control (MERTK (human)) [%] | kinase still bound, per cent of control (STK32C (human)) [%] | kinase still bound, per cent of control (PDGFRA (human)) [%] | kinase still bound, per cent of control (CSNK1D (human)) [%] | kinase still bound, per cent of control (MAPK11 (human)) [%] | kinase still bound, per cent of control (CLK1 (human)) [%] | kinase still bound, per cent of control (DCLK3 (human)) [%] | kinase still bound, per cent of control (MAPK12 (human)) [%] | kinase still bound, per cent of control (PAK6 (human)) [%] | kinase still bound, per cent of control (CDK9 (human)) [%] | kinase still bound, per cent of control (CSK (human)) [%] | kinase still bound, per cent of control (CAMK2G (human)) [%] | kinase still bound, per cent of control (INSRR (human)) [%] | kinase still bound, per cent of control (MARK3 (human)) [%] | kinase still bound, per cent of control (TLK2 (human)) [%] | kinase still bound, per cent of control (MYLK2 (human)) [%] | Structure (SMILES) | kinase still bound, per cent of control (NEK9 (human)) [%] | other results
100 | 100 | 100 | 34 | 100 | 100 | 100 | 100 | 100 | 100 | 100 | 100 | 100 | 100 | 100 | 100 | 100 | 100 | 100 | COc1cc(C(=O)NC2CCN(C)CC2)ccc1Nc1ncc2c(n1)N(C1CCCC1)CCC(=O)N2C(C)C | 100 | kinase still bound, per cent of control (MYO3B (human)): 100%; kinase still bound, per cent of control (CAMK2D (human)): 100%; kinase still bound, per cent of control (RPS6KA4 KD2 (human)): 100%; kinase still bound, per cent of control (ADCK3 (human)): 100%; kinase still bound, per cent of control (INSR (human)): 100%; kinase still bound, per cent of control (AURKC (human)): 100%; kinase still bound, per cent of control (EPHA8 (human)): 100%; kinase still bound, per cent of control (CLK3 (human)): 100%; kinase still bound, per cent of control (MAPK8 (human)): 100%; kinase still bound, per cent of control (NUAK1 (human)): 100%; kinase still bound, per cent of control (CSNK1G2 (human)): 100%; kinase still bound, per cent of control (LYN (human)): 100%; kinase still bound, per cent of control (SLK (human)): 100%; kinase still bound, per cent of control (PAK7 (human)): 100%; kinase still bound, per cent of control (FYN (human)): 100%; kinase still bound, per cent of control (BMPR2 (human)): 100%; kinase still bound, per cent of control (LIMK1 (human)): 100%; kinase still bound, per cent of control (CSNK1G3 (human)): 100%; kinase still bound, per cent of control (PIK3CD (human)): 100%; kinase still bound, per cent of control (STK4 (human)): 100%
100 | 100 | 100 | 100 | 100 | 100 | 100 | 100 | 2.2 | 100 | 100 | 100 | 10 | 100 | 100 | 100 | 100 | 100 | 100 | OCCCNc1cc(-c2ccnc(Nc3cccc(Cl)c3)n2)ccn1 | 100 | kinase still bound, per cent of control (MYO3B (human)): 100%; kinase still bound, per cent of control (CAMK2D (human)): 100%; kinase still bound, per cent of control (RPS6KA4 KD2 (human)): 100%; kinase still bound, per cent of control (ADCK3 (human)): 100%; kinase still bound, per cent of control (INSR (human)): 100%; kinase still bound, per cent of control (AURKC (human)): 100%; kinase still bound, per cent of control (EPHA8 (human)): 100%; kinase still bound, per cent of control (CLK3 (human)): 100%; kinase still bound, per cent of control (MAPK8 (human)): 100%; kinase still bound, per cent of control (NUAK1 (human)): 100%; kinase still bound, per cent of control (CSNK1G2 (human)): 100%; kinase still bound, per cent of control (LYN (human)): 100%; kinase still bound, per cent of control (SLK (human)): 100%; kinase still bound, per cent of control (PAK7 (human)): 100%; kinase still bound, per cent of control (FYN (human)): 100%; kinase still bound, per cent of control (BMPR2 (human)): 100%; kinase still bound, per cent of control (LIMK1 (human)): 100%; kinase still bound, per cent of control (CSNK1G3 (human)): 100%; kinase still bound, per cent of control (PIK3CD (human)): 100%; kinase still bound, per cent of control (STK4 (human)): 100%

Structure (SMILES) | kinase still bound, per cent of control (MAPKAPK5 (human)) [%] | kinase still bound, per cent of control (CAMK1D (human)) [%] | kinase still bound, per cent of control (MELK (human)) [%] | kinase still bound, per cent of control (MERTK (human)) [%] | kinase still bound, per cent of control (STK32C (human)) [%] | kinase still bound, per cent of control (PDGFRA (human)) [%] | kinase still bound, per cent of control (CSNK1D (human)) [%] | kinase still bound, per cent of control (MAPK11 (human)) [%] | kinase still bound, per cent of control (CLK1 (human)) [%] | kinase still bound, per cent of control (DCLK3 (human)) [%] | kinase still bound, per cent of control (MAPK12 (human)) [%] | kinase still bound, per cent of control (PAK6 (human)) [%] | kinase still bound, per cent of control (CDK9 (human)) [%] | kinase still bound, per cent of control (CSK (human)) [%] | kinase still bound, per cent of control (CAMK2G (human)) [%] | kinase still bound, per cent of control (INSRR (human)) [%] | kinase still bound, per cent of control (MARK3 (human)) [%] | kinase still bound, per cent of control (TLK2 (human)) [%] | kinase still bound, per cent of control (MYLK2 (human)) [%] | kinase still bound, per cent of control (NEK9 (human)) [%] | other results
Cc1ccc(NC(=O)c2cccc(C(C)(C)C#N)c2)cc1Nc1ccc2ncn(C)c(=O)c2c1 | 100 | 100 | 100 | 100 | 100 | 0.1 | 100 | 0 | 100 | 100 | 45 | 84 | 100 | 1.2 | 100 | 100 | 89 | 100 | 100 | 100 | kinase still bound, per cent of control (MYO3B (human)): 100%; kinase still bound, per cent of control (CAMK2D (human)): 100%; kinase still bound, per cent of control (RPS6KA4 KD2 (human)): 94%; kinase still bound, per cent of control (ADCK3 (human)): 100%; kinase still bound, per cent of control (INSR (human)): 100%; kinase still bound, per cent of control (AURKC (human)): 100%; kinase still bound, per cent of control (EPHA8 (human)): 2.1%; kinase still bound, per cent of control (CLK3 (human)): 100%; kinase still bound, per cent of control (MAPK8 (human)): 100%; kinase still bound, per cent of control (NUAK1 (human)): 100%; kinase still bound, per cent of control (CSNK1G2 (human)): 100%; kinase still bound, per cent of control (LYN (human)): 0.3%; kinase still bound, per cent of control (SLK (human)): 68%; kinase still bound, per cent of control (PAK7 (human)): 100%; kinase still bound, per cent of control (FYN (human)): 3.6%; kinase still bound, per cent of control (BMPR2 (human)): 58%; kinase still bound, per cent of control (LIMK1 (human)): 100%; kinase still bound, per cent of control (CSNK1G3 (human)): 100%; kinase still bound, per cent of control (PIK3CD (human)): 99%; kinase still bound, per cent of control (STK4 (human)): 100%
